In ChEMBL document CHEMBL5465560, “Selectivity Literature for EUbOPEN Chemogenomic Library” (2024):

Columns and labels:
[1] = molecular target: Protein kinase C beta type (Homo sapiens, UniProt P05771); assay: Selectivity interaction (Kinase screening (Nanosyn)) EUB0000604a PRKCB
[2] = molecular target: Calcium/calmodulin-dependent protein kinase type II subunit delta (Homo sapiens) (UniProt Q13557); assay: Selectivity interaction (Ambit KINOMEscan and KiNATiv profiling in Jurkat cells) EUB0000090b CAMK2D; format: cell-based; conditions: at 1 µM
Calcium/calmodulin-dependent protein kinase type II subunit delta (Homo sapiens), sequence (Q13557 whole entry): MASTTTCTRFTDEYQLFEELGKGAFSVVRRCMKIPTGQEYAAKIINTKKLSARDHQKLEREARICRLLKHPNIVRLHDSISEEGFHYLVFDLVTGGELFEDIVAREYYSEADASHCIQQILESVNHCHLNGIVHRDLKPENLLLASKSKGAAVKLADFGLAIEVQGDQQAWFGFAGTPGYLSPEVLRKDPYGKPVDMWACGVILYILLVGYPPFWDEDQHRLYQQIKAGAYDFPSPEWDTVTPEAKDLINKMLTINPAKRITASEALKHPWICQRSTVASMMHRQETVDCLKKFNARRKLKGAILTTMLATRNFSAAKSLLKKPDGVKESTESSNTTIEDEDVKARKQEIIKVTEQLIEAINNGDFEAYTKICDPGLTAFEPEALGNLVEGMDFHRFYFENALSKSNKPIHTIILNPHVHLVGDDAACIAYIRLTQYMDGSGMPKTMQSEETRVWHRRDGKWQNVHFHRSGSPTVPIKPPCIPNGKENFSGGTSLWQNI

[3] = molecular target: Casein kinase II subunit alpha' (Homo sapiens) (UniProt P19784); conditions: at 10 µM
Casein kinase II subunit alpha' (Homo sapiens), sequence (P19784 whole entry, looked up): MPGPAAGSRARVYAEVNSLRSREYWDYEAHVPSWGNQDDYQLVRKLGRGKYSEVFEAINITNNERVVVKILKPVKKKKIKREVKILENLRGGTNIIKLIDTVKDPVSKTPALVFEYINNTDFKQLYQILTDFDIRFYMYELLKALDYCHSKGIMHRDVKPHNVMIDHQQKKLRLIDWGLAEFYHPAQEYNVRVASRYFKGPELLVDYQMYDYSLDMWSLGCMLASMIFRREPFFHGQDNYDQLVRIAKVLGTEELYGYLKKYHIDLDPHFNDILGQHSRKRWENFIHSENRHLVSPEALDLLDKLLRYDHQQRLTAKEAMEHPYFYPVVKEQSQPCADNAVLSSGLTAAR

[4] = molecular target: T1, Non-receptor tyrosine-protein kinase TNK1 (Homo sapiens) (UniProt Q13470); assay: Selectivity interaction (ProQinase) EUB0000171b TNK1
T1 sequence (whole entry): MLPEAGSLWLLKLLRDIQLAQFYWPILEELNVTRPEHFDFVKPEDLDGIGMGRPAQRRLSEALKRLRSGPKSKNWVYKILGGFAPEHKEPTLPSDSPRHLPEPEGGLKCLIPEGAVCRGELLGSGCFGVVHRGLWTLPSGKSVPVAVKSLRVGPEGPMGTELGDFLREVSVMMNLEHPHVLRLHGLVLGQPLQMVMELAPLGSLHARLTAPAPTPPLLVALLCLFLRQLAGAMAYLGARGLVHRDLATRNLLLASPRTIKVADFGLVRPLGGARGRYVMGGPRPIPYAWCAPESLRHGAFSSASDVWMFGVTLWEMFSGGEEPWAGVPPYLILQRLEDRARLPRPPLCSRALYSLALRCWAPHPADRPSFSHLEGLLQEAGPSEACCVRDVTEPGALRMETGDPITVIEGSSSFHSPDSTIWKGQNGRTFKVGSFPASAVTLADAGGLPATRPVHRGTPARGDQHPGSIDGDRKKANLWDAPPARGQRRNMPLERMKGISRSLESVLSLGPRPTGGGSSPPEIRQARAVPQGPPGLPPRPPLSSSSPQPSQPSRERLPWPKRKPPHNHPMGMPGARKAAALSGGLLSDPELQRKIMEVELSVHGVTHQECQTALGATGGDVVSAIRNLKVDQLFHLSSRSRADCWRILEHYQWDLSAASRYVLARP

[5] = molecular target: Calcium/calmodulin-dependent protein kinase type 1G (Homo sapiens) (UniProt Q96NX5); assay: Selectivity interaction (KinomeScan (DiscoverX)) EUB0000092b CAMK1G; conditions: at 10 µM
Calcium/calmodulin-dependent protein kinase type 1G (Homo sapiens), sequence (Q96NX5 whole entry): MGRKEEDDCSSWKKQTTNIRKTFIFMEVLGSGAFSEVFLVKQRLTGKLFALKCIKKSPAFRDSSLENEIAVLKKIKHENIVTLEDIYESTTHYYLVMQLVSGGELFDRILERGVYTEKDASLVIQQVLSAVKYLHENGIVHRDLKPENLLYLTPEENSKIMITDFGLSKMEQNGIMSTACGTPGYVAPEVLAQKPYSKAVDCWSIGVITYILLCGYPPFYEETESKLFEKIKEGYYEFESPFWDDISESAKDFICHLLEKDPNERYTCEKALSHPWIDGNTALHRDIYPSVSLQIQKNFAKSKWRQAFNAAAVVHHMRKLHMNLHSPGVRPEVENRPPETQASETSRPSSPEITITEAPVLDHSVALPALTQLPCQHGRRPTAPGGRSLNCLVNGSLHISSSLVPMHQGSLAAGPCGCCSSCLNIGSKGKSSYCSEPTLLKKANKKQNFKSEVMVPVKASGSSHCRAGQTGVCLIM

[6] = molecular target: Ribosomal protein S6 kinase beta-1 (Homo sapiens, UniProt P23443); assay: Selectivity interaction (Upstate Kinase Profiler service (Millipore)) EUB0000056c RPS6KB1; conditions: at 1 µM
Ribosomal protein S6 kinase beta-1, sequence (P23443 whole entry, looked up): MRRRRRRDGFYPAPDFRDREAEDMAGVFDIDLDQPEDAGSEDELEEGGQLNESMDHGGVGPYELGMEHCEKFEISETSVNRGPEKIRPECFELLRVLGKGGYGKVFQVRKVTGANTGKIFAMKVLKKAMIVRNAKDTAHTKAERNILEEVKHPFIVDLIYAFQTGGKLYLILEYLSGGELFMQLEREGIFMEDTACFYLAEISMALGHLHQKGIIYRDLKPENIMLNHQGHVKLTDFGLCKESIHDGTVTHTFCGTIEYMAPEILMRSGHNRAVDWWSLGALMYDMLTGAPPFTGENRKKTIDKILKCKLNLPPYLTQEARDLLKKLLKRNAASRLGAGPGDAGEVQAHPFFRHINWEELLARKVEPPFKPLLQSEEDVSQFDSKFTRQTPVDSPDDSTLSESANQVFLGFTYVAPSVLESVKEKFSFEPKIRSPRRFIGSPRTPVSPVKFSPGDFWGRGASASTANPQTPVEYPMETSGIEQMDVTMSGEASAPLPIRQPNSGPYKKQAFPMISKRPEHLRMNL

[7] = molecular target: T2, Tyrosine-protein kinase TXK (Homo sapiens) (UniProt P42681); assay: Selectivity interaction (KinomeScan (DiscoverX)) EUB0000045b TXK
T2 sequence (whole entry): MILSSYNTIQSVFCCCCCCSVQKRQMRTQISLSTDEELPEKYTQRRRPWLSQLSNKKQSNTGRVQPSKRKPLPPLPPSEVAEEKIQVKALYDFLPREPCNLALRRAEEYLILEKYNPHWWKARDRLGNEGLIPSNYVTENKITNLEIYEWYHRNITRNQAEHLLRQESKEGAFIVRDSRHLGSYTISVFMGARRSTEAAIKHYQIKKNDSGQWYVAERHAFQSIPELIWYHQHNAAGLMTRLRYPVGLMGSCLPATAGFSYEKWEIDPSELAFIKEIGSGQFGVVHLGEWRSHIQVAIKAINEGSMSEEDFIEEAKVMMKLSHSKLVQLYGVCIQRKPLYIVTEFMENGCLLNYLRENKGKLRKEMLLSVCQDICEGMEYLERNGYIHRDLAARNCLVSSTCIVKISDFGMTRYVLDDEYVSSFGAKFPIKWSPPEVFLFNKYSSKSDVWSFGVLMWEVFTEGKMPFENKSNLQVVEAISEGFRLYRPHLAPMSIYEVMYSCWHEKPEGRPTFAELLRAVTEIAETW

[8] = molecular target: Calcium/calmodulin-dependent protein kinase type II subunit beta (Homo sapiens) (UniProt Q13554); assay: Selectivity interaction (KinomeScan (DiscoverX)) EUB0001619a CAMK2B; conditions: at 1 µM
Calcium/calmodulin-dependent protein kinase type II subunit beta (Homo sapiens), sequence (Q13554 whole entry): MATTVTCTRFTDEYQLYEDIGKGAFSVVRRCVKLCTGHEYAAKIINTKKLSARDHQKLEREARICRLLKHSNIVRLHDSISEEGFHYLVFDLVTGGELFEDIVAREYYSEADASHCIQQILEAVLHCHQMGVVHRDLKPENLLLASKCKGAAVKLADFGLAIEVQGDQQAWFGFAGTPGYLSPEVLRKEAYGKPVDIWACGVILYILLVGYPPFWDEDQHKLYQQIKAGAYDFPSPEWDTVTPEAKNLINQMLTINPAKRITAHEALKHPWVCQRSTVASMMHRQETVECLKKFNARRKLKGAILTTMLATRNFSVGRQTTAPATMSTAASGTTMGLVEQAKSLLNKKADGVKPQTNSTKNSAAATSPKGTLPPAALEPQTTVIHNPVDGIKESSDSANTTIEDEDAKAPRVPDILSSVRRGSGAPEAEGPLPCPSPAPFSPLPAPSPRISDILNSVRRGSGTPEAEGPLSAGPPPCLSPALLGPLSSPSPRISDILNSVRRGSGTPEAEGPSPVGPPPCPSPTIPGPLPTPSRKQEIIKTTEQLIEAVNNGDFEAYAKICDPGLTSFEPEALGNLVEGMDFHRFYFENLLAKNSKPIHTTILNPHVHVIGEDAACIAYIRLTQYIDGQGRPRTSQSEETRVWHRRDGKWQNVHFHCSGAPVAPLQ

[9] = molecular target: T3, Ephrin type-B receptor 3 (Homo sapiens) (UniProt P54753); assay: Selectivity interaction (KinomeScan (DiscoverX)) EUB0001619a EPHB3; conditions: at 1 µM
T3 sequence (whole entry): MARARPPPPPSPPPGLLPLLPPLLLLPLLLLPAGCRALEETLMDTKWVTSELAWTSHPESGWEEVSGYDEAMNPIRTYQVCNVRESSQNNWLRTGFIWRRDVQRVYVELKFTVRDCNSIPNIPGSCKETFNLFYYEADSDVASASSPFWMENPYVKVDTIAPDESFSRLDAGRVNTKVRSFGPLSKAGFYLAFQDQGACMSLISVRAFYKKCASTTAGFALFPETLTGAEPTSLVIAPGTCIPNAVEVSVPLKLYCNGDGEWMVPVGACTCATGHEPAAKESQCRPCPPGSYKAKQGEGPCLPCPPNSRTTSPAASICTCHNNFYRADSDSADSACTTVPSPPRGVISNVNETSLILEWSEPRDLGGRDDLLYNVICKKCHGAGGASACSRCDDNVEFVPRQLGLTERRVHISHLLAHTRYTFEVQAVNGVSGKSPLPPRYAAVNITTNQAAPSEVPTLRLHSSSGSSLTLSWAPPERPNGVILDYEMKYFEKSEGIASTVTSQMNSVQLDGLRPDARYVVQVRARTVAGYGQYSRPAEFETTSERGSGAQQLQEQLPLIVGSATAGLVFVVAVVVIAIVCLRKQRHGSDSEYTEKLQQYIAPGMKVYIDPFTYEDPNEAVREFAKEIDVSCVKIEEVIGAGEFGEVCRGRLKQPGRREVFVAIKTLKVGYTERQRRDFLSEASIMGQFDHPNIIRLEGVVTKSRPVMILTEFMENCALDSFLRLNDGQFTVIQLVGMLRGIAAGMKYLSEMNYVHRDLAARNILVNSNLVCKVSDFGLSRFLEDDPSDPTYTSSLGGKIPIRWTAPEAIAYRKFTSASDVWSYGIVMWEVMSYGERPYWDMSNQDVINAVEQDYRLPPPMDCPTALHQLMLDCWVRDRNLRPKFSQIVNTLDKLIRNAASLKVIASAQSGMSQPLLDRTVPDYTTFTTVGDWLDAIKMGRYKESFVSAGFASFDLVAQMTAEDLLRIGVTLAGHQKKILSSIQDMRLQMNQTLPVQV

Protein kinase C beta type, sequence (P05771 2-671 limits assumed): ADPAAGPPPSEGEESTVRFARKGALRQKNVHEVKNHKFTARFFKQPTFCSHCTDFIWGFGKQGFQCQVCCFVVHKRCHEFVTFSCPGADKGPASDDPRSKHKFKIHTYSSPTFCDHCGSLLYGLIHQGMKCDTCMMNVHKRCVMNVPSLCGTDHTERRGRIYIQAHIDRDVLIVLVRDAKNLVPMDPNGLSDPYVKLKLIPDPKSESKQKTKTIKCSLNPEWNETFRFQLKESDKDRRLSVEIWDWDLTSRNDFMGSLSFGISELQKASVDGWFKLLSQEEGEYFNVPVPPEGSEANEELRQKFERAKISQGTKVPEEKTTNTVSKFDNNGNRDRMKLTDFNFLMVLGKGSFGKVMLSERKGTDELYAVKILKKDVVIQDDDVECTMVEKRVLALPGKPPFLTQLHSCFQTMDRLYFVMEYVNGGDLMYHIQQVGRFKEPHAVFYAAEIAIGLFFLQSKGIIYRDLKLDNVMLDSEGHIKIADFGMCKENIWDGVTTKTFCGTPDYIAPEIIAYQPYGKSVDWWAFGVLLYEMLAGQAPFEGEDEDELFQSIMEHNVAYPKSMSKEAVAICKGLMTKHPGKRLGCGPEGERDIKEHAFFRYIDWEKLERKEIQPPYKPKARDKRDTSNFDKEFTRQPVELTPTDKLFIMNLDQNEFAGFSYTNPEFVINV

Cc1cnc(Nc2ccc(F)cc2Cl)nc1-c1c[nH]c(C(=O)N[C@H](CO)c2cccc(Cl)c2)c1
% of inhibition [1]: 4%

CN(C)C/C=C/C(=O)Nc1ccc(C(=O)N2CCCC(Nc3ncc(Cl)c(-c4c[nH]c5ccccc45)n3)C2)cc1 (stereo unspecified)
% of control [2]: 88%

CCN(CC)CCCCNc1ncc2cc(-c3cc(OC)cc(OC)c3)c(NC(=O)NC(C)(C)C)nc2n1
% of control [3]: 100%

C=CC(=O)Nc1cccc(C(=O)Nc2ccc(Nc3cc(-c4[nH]c(SC)nc4C)ccn3)cc2)c1
% of control ([4]; at 1 µM): 91% | % of control ([4]; at 5 µM): 61%

CCC(=O)N1CCN(c2ccc(-n3c(=O)ccc4cnc5ccc(-c6cnc7ccccc7c6)cc5c43)cc2C(F)(F)F)CC1
% of control [5]: 74%

Cc1ccc(-c2ccc3c(ccc4sc5c(c43)NC[C@@H](C)NC5=O)n2)cn1
% of inhibition [6]: 8%

C=CC(=O)Nc1cc(-n2c(=O)ccc3cnc4ccc(-c5ccc(NS(C)(=O)=O)cc5)cc4c32)ccc1C
% of control ([7]; at 1 µM): 25% | % of control ([7]; at 10 µM): 2.6%

N#Cc1cccc(-c2c[nH]c3ncnc(N4CCOCC4)c23)c1
% of control [8]: 83% | % of control [9]: 100%
